Source: PMC9591056, “Inhibitors of ApiAP2 protein DNA binding exhibit multistage activity against Plasmodium parasites” (PLOS Pathogens, 2022)

Tests used:
AP2-I D3 = biological target: T1, AP2-I D3 (Plasmodium falciparum, UniProt Q8IJW6); test: competitive EMSA, inhibition of DNA binding; details: 300 uM compound; cognate biotinylated dsDNA probe; 10 mM Tris pH 7.5, 50 mM KCl, 6 mM MgCl2
T1 construct: gene PF3D7_1007700

AP2-EXP AP2 domain [1] = biological target: T2, AP2-EXP AP2 domain (Plasmodium falciparum, UniProt Q8IKH2); test: competitive EMSA, inhibition of DNA binding; details: 300 uM compound, biotinylated cognate dsDNA probe, 10 mM Tris pH 7.5, 50 mM KCl, 6 mM MgCl2
T2 construct: gene PF3D7_1466400
T2 sequence (Q8IKH2 63-123): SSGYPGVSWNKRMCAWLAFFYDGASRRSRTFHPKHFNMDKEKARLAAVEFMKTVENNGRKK

PfSIP2 D1 = biological target: T3, PfSIP2 D1 (Plasmodium falciparum, UniProt C6KSN9); test: competitive EMSA, inhibition of DNA binding; details: 300 uM compound; cognate biotinylated dsDNA probe; 10 mM Tris pH 7.5, 50 mM KCl, 6 mM MgCl2
T3 construct: gene PF3D7_0604100
T3 sequence (C6KSN9 1729-1788 limits assumed): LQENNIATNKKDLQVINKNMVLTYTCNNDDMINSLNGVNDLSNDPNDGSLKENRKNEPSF

AP2-HS D1 = biological target: T4, AP2-HS D1 (Plasmodium falciparum, UniProt C0H5G5); test: competitive EMSA, inhibition of DNA binding; details: 300 uM compound; cognate biotinylated dsDNA probe; 10 mM Tris pH 7.5, 50 mM KCl, 6 mM MgCl2
T4 construct: gene PF3D7_1342900
T4 sequence (C0H5G5 2363-2413 limits assumed): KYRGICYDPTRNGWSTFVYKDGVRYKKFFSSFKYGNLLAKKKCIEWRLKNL

PbAP2-Sp = biological target: T5, PbAP2-Sp (Plasmodium berghei, UniProt A0A509ASL1); test: competitive EMSA, inhibition of DNA binding; details: 300 uM compound; cognate biotinylated dsDNA probe; 10 mM Tris pH 7.5, 50 mM KCl, 6 mM MgCl2
T5 construct: gene PBANKA_1329800
T5 sequence (A0A509ASL1 175-230 limits assumed): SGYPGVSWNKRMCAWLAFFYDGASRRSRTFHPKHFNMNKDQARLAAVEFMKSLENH

AtERF1 AP2/ERF domain = AtERF1 AP2/ERF domain (Arabidopsis thaliana, UniProt O80337 147-205); test: EMSA; 300 uM Compound A; EMSA: 10 mM Tris pH 7.5, 50 mM KCl, 1 mM DTT, 6 mM MgCl2, 60 ng/uL poly dIdC, 65 ng BSA; 125 ng AP2-EXP or PbAP2-Sp, 40-150 fmol probe; 15 min protein + compound, then 5 min with DNA; temperature not stated; details: protein: recombinant; (pGex4t-1); label: 5' biotin on forward strand; blunt
AtERF1 AP2/ERF domain, sequence (O80337 147-205): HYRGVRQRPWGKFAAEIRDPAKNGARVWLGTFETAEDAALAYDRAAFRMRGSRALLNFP

AP2-EXP AP2 domain [2] = biological target: AP2-EXP AP2 domain (Plasmodium falciparum, UniProt Q8IKH2 64-118); test: EMSA; 300 uM Compound D; EMSA: 10 mM Tris pH 7.5, 50 mM KCl, 1 mM DTT, 6 mM MgCl2, 60 ng/uL poly dIdC, 65 ng BSA; 125 ng AP2-EXP or PbAP2-Sp, 40-150 fmol probe; 15 min protein + compound, then 5 min with DNA; temperature not stated; details: protein: recombinant; (expressed as in cited work); label: 5' biotin on forward strand; blunt

T1 sequence (Q8IJW6 entry or part of it): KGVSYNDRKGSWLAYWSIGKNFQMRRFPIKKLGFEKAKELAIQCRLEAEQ

Cc1cccc(-c2nc3cc(NC(=O)c4ccc([N+](=O)[O-])o4)ccc3o2)c1 [B-4, Compound B-4]
competitive EMSA, inhibition of DNA binding (AP2-I D3): prevent DNA binding by AP2-EXP (Fig 2A) and AP2-I D3 (S7A Fig)
competitive EMSA, inhibition of DNA binding (AP2-EXP AP2 domain [1]; also titrated at 25, 50 and 150 uM): Compounds B-1 and B-4 prevent DNA binding by AP2-EXP (Fig 2A)

CCc1ccc(-c2nc3cc(NC(=O)c4ccc([N+](=O)[O-])o4)ccc3o2)cc1 [B, Compound B]
competitive EMSA, inhibition of DNA binding (PfSIP2 D1): Compounds B, C and I prevent DNA binding by PfSIP2 D1 (S5C Fig)
competitive EMSA, inhibition of DNA binding (AP2-HS D1): Compounds B and I prevent DNA binding by AP2-HS D1 (S5B Fig)
competitive EMSA, inhibition of DNA binding (PbAP2-Sp): Compounds B and C block PbAP2-Sp DNA binding in vitro
competitive EMSA, inhibition of DNA binding (AP2-I D3): Compounds A, B, C, and I can prevent DNA binding by AP2-I D3

Cc1ccc(-c2nc3cc(NC(=O)c4ccc([N+](=O)[O-])o4)ccc3o2)cc1Cl [B-1, Compound B-1]
competitive EMSA, inhibition of DNA binding (AP2-I D3): prevent DNA binding by AP2-EXP (Fig 2A) and AP2-I D3 (S7A Fig)
competitive EMSA, inhibition of DNA binding (AP2-EXP AP2 domain [1]): Compounds B-1 and B-4 prevent DNA binding by AP2-EXP (Fig 2A)

B1: AtERF1 gel shift probe (dsDNA)
DNA 1: TTTAACTTTAATTATGAATATGAGGCGGCGGGTTCGTGATCAAC
DNA 2: GTTGATCACGAACCCGCCGCCTCATATTCATAATTAAAGTTAAA
binding result (AtERF1 AP2/ERF domain): binds

B2: AP2-EXP gel shift probe (dsDNA)
DNA 1: ACTACACACCTAACTATGCATGCATCAATATAGTGGATTA
DNA 2: TAATCCACTATATTGATGCATGCATAGTTAGGTGTGTAGT
binding result (AP2-EXP AP2 domain [2]): binds
